The structures appear in SMILES notation. Active and inactive are the calls of the source. The rule behind the calls is not given here.

The values that follow come from ChEMBL document CHEMBL1157422, “Phloroglucinols with antioxidant activity and xanthonolignoids from the heartwood of Hypericum geminiflorum” (J Nat Prod, 2008).

Assay [1] has as its system Radical scavenging activity. Description: Antioxidant activity assessed as DPPH free radical scavenging. Format: functional. (In general: DPPH is a stable violet radical that fades when it is reduced.)
Assay [2] concerns the target Xanthine dehydrogenase/oxidase (Homo sapiens, UniProt P47989). Description: Inhibition of xanthine oxidase.
Assay [3] relates to Escherichia coli. Description: Inhibition of oxygen free radical-induced DNA damage of Escherichia coli plasmid DNA pBR322 by agarose gel electrophoresis.
Assay [4] concerns Radical scavenging activity. The experiment in a line: Antioxidant activity assessed as DPPH free radical scavenging at 300 uM. Format: functional.

Chain of Xanthine dehydrogenase/oxidase (P47989 whole entry): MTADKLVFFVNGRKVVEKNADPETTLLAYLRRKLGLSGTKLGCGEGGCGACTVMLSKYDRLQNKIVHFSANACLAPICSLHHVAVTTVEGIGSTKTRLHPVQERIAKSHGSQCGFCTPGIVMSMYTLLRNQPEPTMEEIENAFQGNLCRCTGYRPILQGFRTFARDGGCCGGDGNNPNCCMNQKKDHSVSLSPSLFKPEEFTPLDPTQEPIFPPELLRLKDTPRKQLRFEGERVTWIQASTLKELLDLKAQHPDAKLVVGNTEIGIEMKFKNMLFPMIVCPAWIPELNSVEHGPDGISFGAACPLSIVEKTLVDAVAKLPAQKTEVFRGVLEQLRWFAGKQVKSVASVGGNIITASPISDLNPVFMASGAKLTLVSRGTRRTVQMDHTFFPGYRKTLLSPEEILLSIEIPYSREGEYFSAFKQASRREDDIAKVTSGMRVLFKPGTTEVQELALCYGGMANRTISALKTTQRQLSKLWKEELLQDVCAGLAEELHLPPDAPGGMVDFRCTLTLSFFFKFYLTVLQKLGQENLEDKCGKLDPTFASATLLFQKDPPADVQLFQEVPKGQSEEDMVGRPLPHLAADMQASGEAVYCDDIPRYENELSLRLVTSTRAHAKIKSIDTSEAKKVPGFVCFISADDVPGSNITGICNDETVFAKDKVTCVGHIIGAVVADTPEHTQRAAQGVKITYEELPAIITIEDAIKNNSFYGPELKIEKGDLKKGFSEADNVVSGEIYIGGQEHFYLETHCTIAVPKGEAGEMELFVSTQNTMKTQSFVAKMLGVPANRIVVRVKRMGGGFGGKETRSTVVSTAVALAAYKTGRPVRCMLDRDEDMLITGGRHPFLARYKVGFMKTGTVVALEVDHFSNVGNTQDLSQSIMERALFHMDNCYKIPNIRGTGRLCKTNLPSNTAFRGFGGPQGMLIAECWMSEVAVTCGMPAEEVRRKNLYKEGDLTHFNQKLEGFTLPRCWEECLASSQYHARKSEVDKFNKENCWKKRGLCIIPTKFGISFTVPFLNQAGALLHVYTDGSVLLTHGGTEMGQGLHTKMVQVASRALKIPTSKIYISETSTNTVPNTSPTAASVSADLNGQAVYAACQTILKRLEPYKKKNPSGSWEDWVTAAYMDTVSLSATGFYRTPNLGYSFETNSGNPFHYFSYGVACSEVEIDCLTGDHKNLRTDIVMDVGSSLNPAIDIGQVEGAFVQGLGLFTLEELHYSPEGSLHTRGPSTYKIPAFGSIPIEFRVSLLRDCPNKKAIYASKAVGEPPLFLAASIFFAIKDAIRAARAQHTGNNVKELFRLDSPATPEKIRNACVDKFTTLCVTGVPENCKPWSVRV

Consider `Cc1c(C)c2c(c(C)c1O)CC[C@@](C)(CCCC(C)CCCC(C)CCCC(C)C)O2` (single isomer, unassigned) [ALPHA-TOCOPHEROL], for which the IC50 in assay [1] is 18.1 µM.
Turning to `CCC(C)C(=O)C1=C(O)[C@@](C)(CC=C(C)C)C(=O)[C@@]2(C[C@H]3[C@H](CC[C@@]3(C)O)[C@](C)(O)C2)C1=O` (some centres not stated) [HYPERIELLIPTONE HB], half-maximal inhibition in assay [2] (IC50) was put at 42.1 µM. Besides, the result in assay [3] was Active. The inhibition in assay [4] is 4.5%.
For `CCC(C)C(=O)C1=C(O)[C@]2(C[C@H]3[C@H](CC[C@@]3(C)O)[C@](C)(O)C2)C(=O)[C@](C)(CC=C(C)C)C1=O` (some centres not stated) [HYPERIELLIPTONE HB] the same measures were 42.1 µM, “Active” and 4.5%.

A word on the IC50: it is the concentration at which inhibition is half-maximal. As usually defined, the inhibition is the share of the control response that was lost under treatment.
